biological target: RAC-alpha serine/threonine-protein kinase (Homo sapiens, UniProt P31749); experiment: AKT1 kinase inhibition by PKD hits, dose response, selectivity assay for PKD inhibitor project, biochemical, 57K library, IC50 (AID 1378)
Sequence (P31749 whole entry): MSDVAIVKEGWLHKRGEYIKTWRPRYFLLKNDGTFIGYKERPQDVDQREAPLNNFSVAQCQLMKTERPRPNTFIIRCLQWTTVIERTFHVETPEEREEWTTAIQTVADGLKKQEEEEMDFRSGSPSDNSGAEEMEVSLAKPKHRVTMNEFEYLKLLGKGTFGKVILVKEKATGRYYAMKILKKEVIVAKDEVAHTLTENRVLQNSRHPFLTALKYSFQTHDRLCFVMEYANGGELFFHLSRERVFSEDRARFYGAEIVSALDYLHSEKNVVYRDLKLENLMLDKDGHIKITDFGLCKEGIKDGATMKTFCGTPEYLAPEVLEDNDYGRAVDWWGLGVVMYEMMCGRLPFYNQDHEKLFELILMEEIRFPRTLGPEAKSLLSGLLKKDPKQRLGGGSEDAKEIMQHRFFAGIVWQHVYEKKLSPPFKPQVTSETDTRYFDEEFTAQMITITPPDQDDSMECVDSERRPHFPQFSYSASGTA

IC50 [µM]	Structure (SMILES)
> 100	O=C(NNC1=Nc2cccc3cccc1c23)c1ccc(Br)cc1 [SMR000260645]
> 100	O=C1CSCN1c1cc(Cl)ccc1Cl [3-(2,5-dichlorophenyl)-1,3-thiazolan-4-one]
> 100	Cn1cccc1C(=O)NC(=O)COC(=O)c1cc(S(=O)(=O)N2CCCCC2)ccc1Cl [[2-[(1-methylpyrrol-2-yl)carbonylamino]-2-oxidanylidene-ethyl] 2-chloranyl-5-piperidin-1-ylsulfonyl-benzoate]
> 100	COc1ccc(CNC(=O)C2Cc3ccccc3CN2C(=O)c2ccco2)cc1 (stereo not drawn) [SMR000343177]
> 100	COc1ccc(Cn2c(=O)[nH]c3cc(C(=O)NC4CCCC4)ccc3c2=O)cc1 [MLS000730065]
> 100	O=C(CSc1ccc2nnc(-c3cccnc3)n2n1)c1ccccc1 [1-phenyl-2-[[3-(3-pyridinyl)-[1,2,4]triazolo[4,3-b]pyridazin-6-yl]thio]ethanone]
> 100	O=C(CSc1ccncc1)Nc1ccc2ccccc2c1 [N-naphthalen-2-yl-2-pyridin-4-ylsulfanylacetamide]
> 100	CCCc1cc(=O)[nH]c(SCCCCN2C(=O)c3ccccc3C2=O)n1 [2-[4-[(4-oxidanylidene-6-propyl-1H-pyrimidin-2-yl)sulfanyl]butyl]isoindole-1,3-dione]
> 100	COC(=O)c1c(NC(=O)C2C3CCC(C3)C2C(=O)O)sc2c1CCCCC2 (stereo not drawn) [SMR000298221]
> 100	CC1Cc2ccccc2N1c1ncnc(N)c1[N+](=O)[O-] (stereo not drawn) [6-(2-methyl-2,3-dihydro-1H-indol-1-yl)-5-nitro-4-pyrimidinamine]
> 100	Cc1cc(NC(=O)CCC(=O)N(Cc2ccco2)C(C(=O)NCC2CCCO2)c2ccncc2)no1 (stereo not drawn) [N'-(furan-2-ylmethyl)-N-(5-methyl-1,2-oxazol-3-yl)-N'-[2-oxidanylidene-2-(oxolan-2-ylmethylamino)-1-pyridin-4-yl-ethyl]butanediamide]
> 100	O=[N+]([O-])c1ccc(Nc2c3ccccc3nc3ccccc23)cc1 [MLS000723809]
> 100	O=C(O)c1cc(C(=O)C2CCCCC2)c[nH]1 [4-(cyclohexylcarbonyl)-1H-pyrrole-2-carboxylic acid]
> 100	CCOC(=O)c1sc(=NC(=O)CCS(=O)(=O)c2ccccc2)n(C)c1C [2-[3-(benzenesulfonyl)-1-oxopropyl]imino-3,4-dimethyl-5-thiazolecarboxylic acid ethyl ester]
> 100	O=C(Nc1ccccc1C(=O)N1CCCC1)C1COc2ccccc2O1 (stereo not drawn) [SMR000287780]
> 100	CC(N=Nc1ncc(Cl)cc1Cl)c1ccccn1 (stereo not drawn) [3,5-dichloro-N-(1-pyridin-2-ylethylideneamino)pyridin-2-amine]
> 100	Cc1c(C#N)c(N)nc(Cl)c1C#N [2-amino-6-chloro-4-methyl-3,5-pyridinedicarbonitrile]
> 100	CSc1ccccc1C(=O)NCc1ccc(F)cc1

— BindingDB's records for doi:10.7270/Q2JM282R (University of Pittsburgh, 2008)
